Experimental findings from patent US7256201B2, “Selective estrogen receptor-β ligands” (AstraZeneca AB, priority 2000, dated 2007) are described below.

Structures are written as SMILES.

T3 sequence (Q92731 54-530 limits assumed): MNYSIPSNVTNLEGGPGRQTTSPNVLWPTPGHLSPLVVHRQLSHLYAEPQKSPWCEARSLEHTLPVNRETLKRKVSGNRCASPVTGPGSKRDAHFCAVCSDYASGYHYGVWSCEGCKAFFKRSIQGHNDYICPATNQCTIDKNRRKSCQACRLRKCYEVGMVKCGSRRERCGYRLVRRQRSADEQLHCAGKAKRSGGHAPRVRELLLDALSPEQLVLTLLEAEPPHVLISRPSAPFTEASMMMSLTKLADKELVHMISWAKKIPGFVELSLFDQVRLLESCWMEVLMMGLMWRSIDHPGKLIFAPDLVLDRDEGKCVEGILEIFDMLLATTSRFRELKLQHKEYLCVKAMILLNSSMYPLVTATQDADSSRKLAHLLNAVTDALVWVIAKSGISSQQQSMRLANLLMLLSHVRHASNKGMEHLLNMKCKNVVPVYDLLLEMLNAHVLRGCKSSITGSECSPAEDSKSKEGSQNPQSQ
T1 sequence (Q92731 whole entry): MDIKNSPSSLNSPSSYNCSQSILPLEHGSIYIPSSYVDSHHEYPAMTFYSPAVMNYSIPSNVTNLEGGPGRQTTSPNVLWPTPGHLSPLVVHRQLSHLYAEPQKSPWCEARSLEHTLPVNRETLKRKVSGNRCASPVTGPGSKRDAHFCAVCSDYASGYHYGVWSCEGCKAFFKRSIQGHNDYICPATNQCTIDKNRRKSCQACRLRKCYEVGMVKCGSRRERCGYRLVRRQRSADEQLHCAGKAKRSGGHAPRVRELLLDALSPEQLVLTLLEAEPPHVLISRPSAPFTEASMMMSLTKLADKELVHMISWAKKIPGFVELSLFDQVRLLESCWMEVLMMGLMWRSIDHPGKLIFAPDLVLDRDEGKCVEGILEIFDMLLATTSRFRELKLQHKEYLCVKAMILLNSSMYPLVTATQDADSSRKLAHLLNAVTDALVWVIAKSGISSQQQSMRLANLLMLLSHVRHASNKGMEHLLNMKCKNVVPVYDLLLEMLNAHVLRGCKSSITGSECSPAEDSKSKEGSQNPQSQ

The first assay has as its target T1, human recombinant ERβ (Homo sapiens, UniProt Q92731).
T1 construct: purchased PanVera (Madison, Wis.)
Put plainly: Fluorescence polarization estrogen receptor (ERFP) binding assay, ERβ. The settings on record: competition with Fluormone ES2; IC50 converted to Ki by Kenakin formula; read-out: FP β-ER Ki. As to the method: (§1) A homogeneous mix-and-measure estrogen receptor (ER) binding assay which utilizes fluorescence polarization (FP) technology is used to identify compounds with affinity for the estrogen receptor. Purchased from PanVera (Madison, Wis.), assay reagents include purified human recombinant ERα, human recombinant ERβ, ES2 screening buffer (100 mM potassium phosphate, pH 7.4, 100 μg/mL bovine gamma globulin), and Fluormone™ ES2.
(§2) For competition binding experiments, dilutions of test compounds are prepared at 2× the final assay concentration in 0.2% DMSO in ES2 Screening buffer on TECAN Genosys, and 25 μL compound/well is dispensed into black Costar ½ volume 96-well plates. Dependent upon a lot specific Kd determination, 10-40 nM ERα or 10-40 nM ERβ and 1 nM Fluormone ES2 are then added to these plates in a final assay volume of 50 μL/well. Plates are gently shaken for at least 5 minutes to mix and incubated for at least 1 hr 45 minutes to achieve equilibrium. (Reaction mixtures are stable for up to 5 hours). After centrifugation to remove air bubbles, plates are read on an LJL Analyst or Acquest equipped with Criterion software at the following settings: Fluorescence Polarization Mode; Static Polarizer on Excitation Side; Dynamic Polarizer on Emission Side; Excitation λ=485×/−5 10 nm; Emission λ=520+/−12.5 nm.
(§3) Polarized fluorescence intensity values are collected and subsequently converted electronically to millipolarization (mp) values. Following data reduction and normalization with Excel and/or Prism software, % Ctrl values at the various test concentrations are used to obtain IC50 values via non-linear regression analysis of a four-parameter logistic equation.
(§4) Because ligand depletion is a consideration in this assay (˜40-60% input ES2 is bound in the assay), IC50 values are converted to Ki values through application of the Kenakin formula, as outlined in the reference below, rather than via the more routinely-used Cheng-Prusoff formula.
(In general: Polarisation of emitted light reports the rotation of a fluorescent probe.)
For orientation: Ki means the dissociation constant of the complex between target and ligand, obtained from inhibition or displacement. On to `Cc1ccc(O)cc1N1CCc2cc(O)ccc2C1C` (stereo not drawn) [Example 18, 2-(5-Hydroxy-2-methyl-phenyl)-1-methyl-1,2,3,4-tetrahydro-isoquinolin-6-ol], for which the Ki amounted to 4.5 nM.

Turning to `CCC1c2ccc(O)cc2CCN1c1ccc(O)c(Cl)c1` (stereo not drawn) [Example 19, 2-(3-Chloro-4-hydroxy-phenyl)-1-ethyl-1,2,3,4-tetrahydro-isoquinolin-6-ol], the Ki came out at 24.4 nM.

As to `Cc1ccc(N2CCc3cc(O)ccc3C2c2ccccc2)cc1O` (stereo not drawn) [Example 20, 2-(3-Hydroxy-4-methyl-phenyl)-1-phenyl-1,2,3,4-tetrahydro-isoquinolin-6-ol], the Ki was determined as 1.2 nM.

Staying with this assay, now noted: ratio α-ER Ki / β-ER Ki.
For `Cc1ccc(O)cc1N1CCc2cc(O)ccc2C1C` (stereo not drawn) [Example 18, 2-(5-Hydroxy-2-methyl-phenyl)-1-methyl-1,2,3,4-tetrahydro-isoquinolin-6-ol], the “FP Selectivity” value is given as 2.1.

Consider `CCC1c2ccc(O)cc2CCN1c1ccc(O)c(Cl)c1` (stereo not drawn) [Example 19, 2-(3-Chloro-4-hydroxy-phenyl)-1-ethyl-1,2,3,4-tetrahydro-isoquinolin-6-ol], for which the “FP Selectivity” value turned out to be 3.0.

Turning to `Cc1ccc(N2CCc3cc(O)ccc3C2c2ccccc2)cc1O` (stereo not drawn) [Example 20, 2-(3-Hydroxy-4-methyl-phenyl)-1-phenyl-1,2,3,4-tetrahydro-isoquinolin-6-ol], the “FP Selectivity” value came out at 2.5.

Another assay addresses T2, human recombinant ERα (Homo sapiens, UniProt P03372).
T2 construct: purchased PanVera (Madison, Wis.)
T2 sequence (P03372 1-595): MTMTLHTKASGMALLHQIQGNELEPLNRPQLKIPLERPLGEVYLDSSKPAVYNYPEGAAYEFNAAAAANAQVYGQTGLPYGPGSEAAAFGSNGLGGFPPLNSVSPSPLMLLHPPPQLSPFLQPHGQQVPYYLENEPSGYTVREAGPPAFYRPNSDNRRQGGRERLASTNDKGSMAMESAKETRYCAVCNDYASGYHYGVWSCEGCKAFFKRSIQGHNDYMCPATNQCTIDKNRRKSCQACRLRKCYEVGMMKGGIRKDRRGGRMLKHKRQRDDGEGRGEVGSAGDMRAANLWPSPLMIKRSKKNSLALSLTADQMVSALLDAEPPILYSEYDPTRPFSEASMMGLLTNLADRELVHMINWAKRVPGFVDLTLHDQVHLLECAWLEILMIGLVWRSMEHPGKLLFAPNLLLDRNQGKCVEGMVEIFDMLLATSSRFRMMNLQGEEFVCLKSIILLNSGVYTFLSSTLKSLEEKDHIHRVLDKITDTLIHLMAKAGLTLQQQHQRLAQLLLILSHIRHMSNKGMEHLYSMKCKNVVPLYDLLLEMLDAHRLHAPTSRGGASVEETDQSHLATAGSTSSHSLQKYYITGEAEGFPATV
Put plainly: Fluorescence polarization estrogen receptor (ERFP) binding assay, ERα. Conditions: competition with Fluormone ES2; IC50 converted to Ki by Kenakin formula; read-out: FP α-ER Ki. On the procedure:
as §1, §2, §3, §4
On to `Cc1ccc(O)cc1N1CCc2cc(O)ccc2C1C` (stereo not drawn) [Example 18, 2-(5-Hydroxy-2-methyl-phenyl)-1-methyl-1,2,3,4-tetrahydro-isoquinolin-6-ol], for which the Ki was found to be 9 nM.

Turning to `CCC1c2ccc(O)cc2CCN1c1ccc(O)c(Cl)c1` (stereo not drawn) [Example 19, 2-(3-Chloro-4-hydroxy-phenyl)-1-ethyl-1,2,3,4-tetrahydro-isoquinolin-6-ol], the Ki amounted to 72 nM.

`Cc1ccc(N2CCc3cc(O)ccc3C2c2ccccc2)cc1O` (stereo not drawn) [Example 20, 2-(3-Hydroxy-4-methyl-phenyl)-1-phenyl-1,2,3,4-tetrahydro-isoquinolin-6-ol]: the Ki was found to be 3 nM.

Another assay addresses T3, βER (Homo sapiens, UniProt Q92731).
T3 construct: expressed in transfected cells; host or cells: 293 cells (Human Embryonic Kidney, ATCC CRL-1573)
Put plainly: Cell-based assay for ER transcriptional activity (ERE β-gal reporter), βER-transfected 293 cells. Conditions: 293 cells transfected with βER and ERE reporter. On the procedure: (§5) ERs are ligand-dependent transcription factors that bind the promoter regions of genes at a consensus DNA sequence called the estrogen responsive element (ERE). The ER agonist or antagonist activity of a drug was determined by measuring the amount of reporter enzyme activity expressed from a plasmid under the control of an estrogen-responsive element when cells transiently transfected with ER and the reporter plasmid were exposed to drug. These experiments were conducted according to the following methods.
(§6) Estrogen Receptors alpha (αER, Gen Bank accession #M12674), and beta (βER, Gen Bank #X99101 were cloned into the expression vector pSG5 (Stratagene). A trimer of the vitellogenin-gene estrogen response element (vitERE) was synthesized as an oligonucleotide and attached to a beta-globin basal promoter in a construct named pERE3 gal. This response element and promoter were removed from pERE3 gal by digestion with the endonucleases SpeI (filled with Klenow fragment) and HindIII. This blunt/Hind III fragment was cloned into the β-galactosidase (β-gal) enhancer reporter plasmid (pBGALenh, Stratagene). αER and βER plasmids were purified using a the Endo Free Maxi Kit (Qiagen), and the DNA concentration and purity (A260/280 ratio) were determined spectrophotometrically (Pharmacia). Only DNA with A260/280 ratio of 1.8 and a concentration of >1 ug/uL was used for transfections.
(§7) All Transfections are performed in 293 cells (Human Embryonic Kidney cells ATCC #CRL-1573). Cells are grown in DMEM supplemented with 10% FBS, glutamine, sodium pyruvate and penicilin/streptomycin. Cells are grown to 70% confluency and split 1:4.
(§8) • 1. 293 cells are split the night before onto collagen I-coated 150 mm tissue-culture plates (Biocoat, Becton Dickinson #354551) at a density of 60-70% in DMEM Mediatech 17-205-CV) 10% charcoal-stripped FBS (biocell #6201-31). Approximately 1×10^7 cells/plate will yield 70% confluency. • 2. The next morning, 1 hour prior to transfection, the media is changed to fresh DMEM 10% FBS stripped and supplements. • 3. Transfections are performed using the Profection Kit (Promega #E1200). This kit is based on the calcium-phosphate-mediated transfection technique. Reagents are added in sterile polystyrene tubes in the following order:
(§9) Solution A • 15 μg αER or βER • 45 μg Reporter (pBGALenh or ERE3) • 1.5 mL Sterile Water • 186 μL CaCl2 • *Mix gently
(§10) Solution B • 1.5 mL 2× Hank's Buffered Salt Solution • 4. Using a vortex set on low, add solution A to solution B dropwise. The resulting solution should become milky in color. It is important to achieve thorough mixing. The solution is allowed to settle for 30 minutes, then vortexed before adding the solution to cells. • 5. Add the mixture to 150 mm plates dropwise. Mix well by rocking plates back and forth and side to side gently. After an hour, a very fine precipitate should be seen floating on and above cells under 20× magnification. If this precipitate is not observed, the transfection will not be effective. Incubate the cells for 12 hours. Receptor Stimulation: • 1. The day after transfection, cells are washed 2× with calcium- and magnesium-free Mg free PBS containing 1 mM EGTA (pH 7.6). Cells are trypsinized for 2 min with 3 mL of trypsin-EDTA. Trypsin is neutralized with DMEM 10% FCS. Cells are pelleted at 1000×g for 5 min. The cell pellet is then resuspended in 5 mL DMEM plus 2% phenol-red-free FCS supplemented with glutamine, pyruvate, and Penn/Strep. • 2. 50 μl of the resulting cell suspension is plated into each well of 96-well tissue culture dishes (Biocoat B&D #354407) using a multi-channel pipettor. The dishes have been previously loaded with 50 μL of DMSO-solubilized test compounds at twice the test concentration in DMEM. Data reported are either n=4 wells (single poke) and n=2 wells (9-point concentration-response curves). • 3. Cells are incubated overnight at 37° C. in the selected compounds. Reporter Assay: • 1. […]
Usually EC50 stands for the midpoint of the concentration-response curve. Compound `Cc1ccc(O)cc1N1CCc2cc(O)ccc2C1C` (stereo not drawn) [Example 18, 2-(5-Hydroxy-2-methyl-phenyl)-1-methyl-1,2,3,4-tetrahydro-isoquinolin-6-ol] registered an EC50 of 6.1 nM.

Turning to `CCC1c2ccc(O)cc2CCN1c1ccc(O)c(Cl)c1` (stereo not drawn) [Example 19, 2-(3-Chloro-4-hydroxy-phenyl)-1-ethyl-1,2,3,4-tetrahydro-isoquinolin-6-ol], the EC50 turned out to be 209 nM.

Regarding `Cc1ccc(N2CCc3cc(O)ccc3C2c2ccccc2)cc1O` (stereo not drawn) [Example 20, 2-(3-Hydroxy-4-methyl-phenyl)-1-phenyl-1,2,3,4-tetrahydro-isoquinolin-6-ol], the EC50 turned out to be 0.4 nM.

The same assay, now with this note: 293 cells transfected with βER and ERE reporter; maximal response; unit assumed.
In the case of `Cc1ccc(O)cc1N1CCc2cc(O)ccc2C1C` (stereo not drawn) [Example 18, 2-(5-Hydroxy-2-methyl-phenyl)-1-methyl-1,2,3,4-tetrahydro-isoquinolin-6-ol], the ERE β-ER Max stood at 117%.

The compound `CCC1c2ccc(O)cc2CCN1c1ccc(O)c(Cl)c1` (stereo not drawn) [Example 19, 2-(3-Chloro-4-hydroxy-phenyl)-1-ethyl-1,2,3,4-tetrahydro-isoquinolin-6-ol] came in with an ERE β-ER Max of 41%.

`Cc1ccc(N2CCc3cc(O)ccc3C2c2ccccc2)cc1O` (stereo not drawn) [Example 20, 2-(3-Hydroxy-4-methyl-phenyl)-1-phenyl-1,2,3,4-tetrahydro-isoquinolin-6-ol] had an ERE β-ER Max of 85%.

Still in this assay, the particulars now being: ratio α-ER EC50 / β-ER EC50.
For `Cc1ccc(O)cc1N1CCc2cc(O)ccc2C1C` (stereo not drawn) [Example 18, 2-(5-Hydroxy-2-methyl-phenyl)-1-methyl-1,2,3,4-tetrahydro-isoquinolin-6-ol], the “ERE Selectivity” value came to 4.0.

On to `CCC1c2ccc(O)cc2CCN1c1ccc(O)c(Cl)c1` (stereo not drawn) [Example 19, 2-(3-Chloro-4-hydroxy-phenyl)-1-ethyl-1,2,3,4-tetrahydro-isoquinolin-6-ol], for which the “ERE Selectivity” value was determined as 0.1.

In the case of `Cc1ccc(N2CCc3cc(O)ccc3C2c2ccccc2)cc1O` (stereo not drawn) [Example 20, 2-(3-Hydroxy-4-methyl-phenyl)-1-phenyl-1,2,3,4-tetrahydro-isoquinolin-6-ol], the “ERE Selectivity” value is 3.3.

In another assay the target is T4, αER (Homo sapiens, UniProt P03372).
T4 construct: expressed in transfected cells; host or cells: 293 cells (Human Embryonic Kidney, ATCC CRL-1573)
T4 sequence (P03372 1-595): T2 sequence (P03372 1-595)
Put plainly: Cell-based assay for ER transcriptional activity (ERE β-gal reporter), αER-transfected 293 cells. Conditions: 293 cells transfected with αER and ERE reporter; maximal response; unit assumed. As to the method: as §5, §6, §7, §8, §9, §10
As to `Cc1ccc(O)cc1N1CCc2cc(O)ccc2C1C` (stereo not drawn) [Example 18, 2-(5-Hydroxy-2-methyl-phenyl)-1-methyl-1,2,3,4-tetrahydro-isoquinolin-6-ol], the ERE α-ER Max came to 85%.

The compound `CCC1c2ccc(O)cc2CCN1c1ccc(O)c(Cl)c1` (stereo not drawn) [Example 19, 2-(3-Chloro-4-hydroxy-phenyl)-1-ethyl-1,2,3,4-tetrahydro-isoquinolin-6-ol] came in with an ERE α-ER Max of 66%.

As to `Cc1ccc(N2CCc3cc(O)ccc3C2c2ccccc2)cc1O` (stereo not drawn) [Example 20, 2-(3-Hydroxy-4-methyl-phenyl)-1-phenyl-1,2,3,4-tetrahydro-isoquinolin-6-ol], the ERE α-ER Max is 75%.

Still in this assay, the particulars now being: 293 cells transfected with αER and ERE reporter; read-out: ERE α-ER EC50.
In the case of `Cc1ccc(O)cc1N1CCc2cc(O)ccc2C1C` (stereo not drawn) [Example 18, 2-(5-Hydroxy-2-methyl-phenyl)-1-methyl-1,2,3,4-tetrahydro-isoquinolin-6-ol], the EC50 is 24.6 nM.

With `CCC1c2ccc(O)cc2CCN1c1ccc(O)c(Cl)c1` (stereo not drawn) [Example 19, 2-(3-Chloro-4-hydroxy-phenyl)-1-ethyl-1,2,3,4-tetrahydro-isoquinolin-6-ol], the EC50 was determined as 16.8 nM.

As for `Cc1ccc(N2CCc3cc(O)ccc3C2c2ccccc2)cc1O` (stereo not drawn) [Example 20, 2-(3-Hydroxy-4-methyl-phenyl)-1-phenyl-1,2,3,4-tetrahydro-isoquinolin-6-ol], the EC50 is 1.2 nM.
